Measured values reported in patent publication US10774064B2 (Cadent Therapeutics, Inc., priority 2016, dated 2020).
Where a name gives a salt, the structure may show the parent alone.

Target: T1, small-conductance Ca2+-activated K+ channels (SK channels, subtype 2) (Homo sapiens, UniProt Q9H2S1)
T1 construct: expressed in transfected cells; host or cells: HEK293
Test: whole-cell patch-clamp of ionic current through SK2 channels in HEK293 cells (SC100)
Assay type: cell-based
Conditions: whole-cell patch-clamp, HEK293 cells expressing SK2 channels; concentration that increases the basal current by 100%
Method in brief: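 Whole-cell patch-clamp recording of current in HEK293 cells expressing SK2 channels. SC100 is the compound concentration that increases basal current by 100%.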

SMILES	SC100 (μM)
COC(C)c1cc(N(C)C2CCC(F)(F)CC2)nc(-n2ccc(C(F)(F)F)n2)n1 (stereo not drawn) [IN11053-073-P1, N-(4,4-difluorocyclohexyl)-6-(1-methoxyethyl)-N-methyl-2-(3-(trifluoromethyl)-1H-pyrazol-1-yl)pyrimidin-4-amine]	+ (+ means >1 uM)
COC(C)c1cc(NC2CCC(F)(F)CC2)nc(-n2ccc(C(F)(F)F)n2)n1 (stereo not drawn) [IN11053-076-P1, N-(4,4-difluorocyclohexyl)-6-(1-methoxyethyl)-2-(3-(trifluoromethyl)-1H-pyrazol-1-yl)pyrimidin-4-amine]	+ (+ means >1 uM)
Cc1ccn(-c2cc(C(C)OC(=O)N(C)C)cc(NC3CCC(F)(F)CC3)n2)n1 (stereo not drawn) [IN11054-003-P1, 1-(2-((4,4-difluorocyclohexyl)amino)-6-(3-methyl-1H-pyrazol-1-yl)pyridin-4-yl)ethyl dimethylcarbamate]	++ (++ means 200 nM-1000 nM)
COC(=O)NC(C)c1cc(NC2CCC(F)(F)CC2)nc(-n2ccc(C)n2)c1 (stereo not drawn) [IN11054-005-P1, methyl (1-(2-((4,4-difluorocyclohexyl)amino)-6-(3-methyl-1H-pyrazol-1-yl)pyridin-4-yl)ethyl) carbamate]	+ (+ means >1 uM)
Cc1ccn(-c2nc(NC3CCC(F)(F)CC3)cc(OCC(F)(F)F)n2)n1 [IN11054-011-P1]	+ (+ means >1 uM)
Cc1ccn(-c2nc(NC3CCC(F)(F)CC3)cc(OCc3cnco3)n2)n1 [IN11054-012-P1]	++ (++ means 200 nM-1000 nM)
Cc1ccn(-c2cc(NC3CCC(F)(F)CC3)nc(-n3ccc(C)n3)c2)n1 [IN11054-030-P1, N-(4,4-difluorocyclohexyl)-4,6-bis(3-methyl-1H-pyrazol-1-yl)pyridin-2-amine]	+ (+ means >1 uM)
COc1cc(NC2CCC(F)(F)CC2)nc(-n2nc(C)cc2C)c1 [IN11054-038-P1]	+ (+ means >1 uM)
COc1cc(NC2CCC(F)(F)CC2)nc(-n2ccc(C)n2)c1 [IN11054-054-P1, N-(4,4-difluorocyclohexyl)-4-methoxy-6-(3-methyl-1H-pyrazol-1-yl)pyridin-2-amine]	++ (++ means 200 nM-1000 nM)
Cc1cc(C)n(-c2cc(C)c(CNC3CCC(F)(F)CC3)nn2)n1 [IN11054-078-P1, N-((6-(3,5-dimethyl-1H-pyrazol-1-yl)-4-methylpyridazin-3-yl)methyl)-4,4-difluorocyclohexan-1-amine]	+ (+ means >1 uM)
COc1cc(NC2CCCCC2)nc(-n2nc(C)cc2C)n1 [IN11055-044-P1]	+ (+ means >1 uM)
COc1cc(NC2CCC(C)(C)CC2)nc(-n2ccc(C)n2)n1 [IN11055-078-P1, N-(4,4-dimethylcyclohexyl)-6-methoxy-2-(3-methyl-1H-pyrazol-1-yl)pyrimidin-4-amine]	+ (+ means >1 uM)
COc1cc(NC2CCC(F)CC2)nc(-n2nc(C)cc2C)n1 (stereo not drawn) [IN11055-079-P1]	+ (+ means >1 uM)
COc1cc(NC2CC3CCC2C3)nc(-c2nc(C)cs2)n1 (stereo not drawn) [IN11055-087-P1]	+ (+ means >1 uM)
Cc1ccn(-c2nc(NC3CCC(F)(F)CC3)cc([S+](C)[O-])n2)n1 (stereo not drawn) [IN11059-069-P1]	++ (++ means 200 nM-1000 nM)
CSc1cc(NC2CCC(F)(F)CC2)nc(-n2ccc(C)n2)n1 [IN11059-070-P1]	++ (++ means 200 nM-1000 nM)
Cc1ccn(-c2nc(NC3CCC(F)(F)CC3)cc(S(C)(=O)=O)[n+]2[O-])n1 [IN11059-071-P1]	+ (+ means >1 uM)
CCOc1cc(NC2CCC(F)(F)CC2)nc(-n2ccc(C)n2)n1 [IN11063-005-P1]	+ (+ means >1 uM)
Cc1ccn(-c2cc(CN(C)C)cc(NC3CCC(F)(F)CC3)n2)n1 [IN11063-006-P1, N-(4,4-difluorocyclohexyl)-4-((dimethylamino)methyl)-6-(3-methyl-1H-pyrazol-1-yl)pyridin-2-amine]	++ (++ means 200 nM-1000 nM)
COC(=O)NC(C)(C)c1cc(NC2CCC(F)(F)CC2)nc(-n2ccc(C)n2)c1 [IN11063-030-P1, methyl (2-(2-((4,4-difluorocyclohexyl)amino)-6-(3-methyl-1H-pyrazol-1-yl)pyridin-4-yl)propan-2-yl)carbamate]	+ (+ means >1 uM)
Cc1cc(NC2CCC(F)(F)CC2)cc(-c2nc(C)cs2)c1 [IN11063-086-P2, N-(4,4-difluorocyclohexyl)-3-methyl-5-(4-methylthiazol-2-yl) aniline]	+ (+ means >1 uM)
Cc1ccn(-c2nc(N3CCOCC3)cc3c2CCN3)n1 [IN11063-092-P1, 4-(4-(3-methyl-1H-pyrazol-1-yl)-2,3-dihydro-1H-pyrrolo[3,2-c]pyridin-6-yl)morpholine hydrochloride]	+ (+ means >1 uM)
CC(=O)N1CCCC(OCc2cc(NC3CCC(F)(F)CC3)nc(-n3ccc(C)n3)c2)C1 (stereo not drawn) [IN11067-003-P1]	++ (++ means 200 nM-1000 nM)
COC(=O)N1CCCC(OCc2cc(NC3CCC(F)(F)CC3)nc(-n3ccc(C)n3)c2)C1 (stereo not drawn) [IN11067-004-P1]	++ (++ means 200 nM-1000 nM)
Cc1cc(C)n(-c2cc(OCc3ncco3)cc(NC3CCC(F)(F)CC3)n2)n1 [IN11067-023-P1, N-(4,4-difluorocyclohexyl)-6-(3,5-dimethyl-1H-pyrazol-1-yl)-4-(oxazol-2-ylmethoxy)pyridin-2-amine]	+++ (+++ means <200 nM)
CSc1cc(NC2CCC(F)(F)CC2)nc(-n2nc(C)cc2C)n1 [IN11067-060-P1, N-(4,4-difluorocyclohexyl)-2-(3,5-dimethyl-1H-pyrazol-1-yl)-6-(methylthio)pyrimidin-4-amine]	+ (+ means >1 uM)
Cc1cc(C)n(-c2nc(NC3CCC(F)(F)CC3)cc(S(C)(=O)=O)n2)n1 [IN11067-061-P1]	+ (+ means >1 uM)
Cc1cc(C)n(-c2nc(NC3CCC(F)(F)CC3)cc([S+](C)[O-])n2)n1 (stereo not drawn) [IN11067-062-P1]	+ (+ means >1 uM)

The next lines start with the values.

SC100 (μM)	SMILES
++ (++ means 200 nM-1000 nM)	CSc1cc(NC2CCC(F)(F)CC2)nc(-c2nc(C)cs2)n1 [IN11054-039-P1]
+ (+ means >1 uM)	Cc1csc(-c2nc(NC3CCC(F)(F)CC3)cc(S(C)(=O)=O)n2)n1 [IN11054-046-P1]
++ (++ means 200 nM-1000 nM)	Cc1csc(-c2nc(NC3CCC(F)(F)CC3)cc([S+](C)[O-])n2)n1 (stereo not drawn) [IN11054-046-P2]
++ (++ means 200 nM-1000 nM)	Cc1csc(-c2nc(NC3CCC(F)(F)CC3)cc(C3CCC3)n2)n1 [IN11054-081-P1, 6-cyclobutyl-N-(4,4-difluorocyclohexyl)-2-(4-methylthiazol-2-yl)pyrimidin-4-amine]
+ (+ means >1 uM)	CCOc1cc(NC2CCC(F)(F)CC2)nc(-c2nc(C)cs2)n1 [IN11055-015-P1]
+ (+ means >1 uM)	Cc1csc(-c2nc(NC3CCC(F)(F)CC3)cc(OC(C)C)n2)n1 [IN11055-016-P1]
++ (++ means 200 nM-1000 nM)	Cc1csc(-c2nc(NC3CCC(F)(F)CC3)cc(N(C)C)n2)n1 [IN11055-046-P1]
++ (++ means 200 nM-1000 nM)	CNc1cc(NC2CCC(F)(F)CC2)nc(-c2nc(C)cs2)n1 [IN11055-049-P1]
+ (+ means >1 uM)	COc1cc(NC2CCCC2)nc(-c2nc(C)cs2)n1 [IN11055-066-P1]
+ (+ means >1 uM)	Cc1csc(-c2nc(N)cc(NC3CCC(F)(F)CC3)n2)n1 [IN11055-068-P1, N4-(4,4-difluorocyclohexyl)-2-(4-methylthiazol-2-yl)pyrimidine-4,6-diamine]
++ (++ means 200 nM-1000 nM)	COc1cc(NC2CCC(C)(C)CC2)nc(-c2nc(C)cs2)n1 [IN11055-069-P1, N-(4,4-dimethylcyclohexyl)-6-methoxy-2-(4-methylthiazol-2-yl)pyrimidin-4-amine]
+++ (+++ means <200 nM)	Cc1csc(-c2nc(NC3CCC(F)(F)CC3)cc(OCc3cnco3)n2)n1 [IN11059-047-P1]
++ (++ means 200 nM-1000 nM)	Cc1csc(-c2nc(NC3CCC(F)(F)CC3)cc(OCCNS(C)(=O)=O)n2)n1 [IN11059-052-P1]
++ (++ means 200 nM-1000 nM)	CC(=O)N(C)Cc1cc(NC2CCC(F)(F)CC2)nc(-c2nc(C)cs2)n1 [IN11059-090-P1]
++ (++ means 200 nM-1000 nM)	Cc1csc(-c2nc(CN(C)C=O)cc(NC3CCC(F)(F)CC3)n2)n1 [IN11059-095-P1]
+ (+ means >1 uM)	CNCc1cc(NC2CCC(F)(F)CC2)nc(-c2nc(C)cs2)n1 [IN11059-096-P1, N-(4,4-difluorocyclohexyl)-6-((methylamino)methyl)-2-(4-methylthiazol-2-yl)pyrimidin-4-amine]
++ (++ means 200 nM-1000 nM)	Cc1csc(-c2cc(N)cc(NC3CCC(F)(F)CC3)n2)n1 [IN11063-087-P1, N2-(4,4-difluorocyclohexyl)-6-(4-methylthiazol-2-yl)pyridine-2,4-diamine]
++ (++ means 200 nM-1000 nM)	CNc1cc(NC2CCC(F)(F)CC2)nc(-c2nc(C)cs2)c1 [IN11063-096-P1, N2-(4,4-difluorocyclohexyl)-N4-methyl-6-(4-methylthiazol-2-yl)pyridine-2,4-diamine]
++ (++ means 200 nM-1000 nM)	COc1cc(NC2CCCCC2)nc(-c2nc(C)cs2)n1 [IN11067-035-P1]
+ (+ means >1 uM)	COc1cc(NC2CCC(F)CC2)nc(-c2nc(C)cs2)n1 (stereo not drawn) [IN11067-072-P1]
